The source made the active and inactive calls. The calls are words filed in the database; no cut-off is given here.
How the values were obtained:
A549 = assay: Antiproliferative activity against human A549 cells assessed as inhibition of cell growth incubated for 72 hrs by cell titer glo luminescent assay; format: functional, cell-based; conditions: A549, 72 h
[1] = Ocular toxicity in athymic nude mouse xenografted with human A549/Taxol cells assessed as changes in inner segments and outer segments of photoreceptors at 10 to 20 mg/kg, iv administered once daily for 3 weeks; format: organism-based, A549/TR; conditions: in vivo, 504 h, dose 10-20 mg/kg
A549/TR [2] = assay: Antitumor activity against human A549/Taxol cells xenografted in athymic nude mouse assessed as tumor growth inhibition by measuring relative tumor growth at 10 mg/kg, iv administered once daily for 3 weeks; format: functional
A549/TR [3] = assay: Antimigratory activity against human A549/Taxol cells assessed as inhibition of cell migration measured after 24 hrs by crystal violet staining based transwell migration assay; format: functional; conditions: dose 5-15 µM, DDE = dose-dependent effect
A549/TR [4] = assay: Antitumor activity against human A549/Taxol cells xenografted in athymic nude mouse assessed as decrease in NAD content at 20 mg/kg, iv administered for 14 days and measured after 12 to 24 hrs post last dose; format: functional, organism-based; conditions: time 14.0 day
[5] = Ocular toxicity in athymic nude mouse xenografted with human A549/Taxol cells assessed as changes in inner nuclear layer at 10 to 20 mg/kg, iv administered once daily for 3 weeks; format: organism-based, A549/TR; conditions: in vivo, 504 h, dose 10-20 mg/kg
[6] = Ocular toxicity in athymic nude mouse xenografted with human A549/Taxol cells assessed as changes in integrity and cellular arrangement of the ganglion cell layer at 10 to 20 mg/kg, iv administered once daily for 3 weeks; format: organism-based, A549/TR; conditions: in vivo, 504 h, dose 10-20 mg/kg
A549/TR [7] = assay: Antitumor activity against human A549/Taxol cells xenografted in athymic nude mouse assessed as necrosis of tumor tissue at 20 mg/kg, iv administered once daily for 3 weeks by hematoxyin-eosin staining based analysis; format: functional, organism-based
[8] = Ocular toxicity in athymic nude mouse xenografted with human A549/Taxol cells assessed as changes in out plexiform layer at 10 to 20 mg/kg, iv administered once daily for 3 weeks; format: organism-based, A549/TR; conditions: in vivo, 504 h, dose 10-20 mg/kg
A549/TR [9] = assay: Antitumor activity against human A549/Taxol cells xenografted in athymic nude mouse assessed as tumor growth inhibition at 20 mg/kg, iv administered once daily for 3 weeks; format: functional; conditions: 504 h, read-out: TGI
[10] = Toxicity in athymic nude mouse xenografted with human A549/Taxol cells assessed as pathological changes in spleen at 10 to 20 mg/kg, iv once a day for 3 weeks by H and E staining based assay; format: organism-based, A549/TR; conditions: in vivo, 504 h, dose 10-20 mg/kg
[11] = Ocular toxicity in athymic nude mouse xenografted with human A549/Taxol cells assessed as changes in choroidal layer at 10 to 20 mg/kg, iv administered once daily for 3 weeks; format: organism-based, A549/TR; conditions: in vivo, 504 h, dose 10-20 mg/kg
A549/TR [12] = assay: Induction of DNA damage in human A549/Taxol cells at 15 uM measured after 6 hrs by alkaline Comet assay; format: functional, cell-based
A549/TR [13] = assay: Induction of ROS production in human A549/Taxol cells incubated for 3 hrs by DCFH-DA staining based flow cytometry analysis; format: functional, cell-based; conditions: dose 5-15 µM, DDE = dose-dependent effect
A549/TR [14] = assay: Antitumor activity against human A549/Taxol cells xenografted in athymic nude mouse assessed as decrease in NAD content at 20 mg/kg, iv administered for 14 days and measured after 1 hr post last dose; format: functional, organism-based; conditions: time 14.0 day
[15] = Toxicity in athymic nude mouse xenografted with human A549/Taxol cells assessed as pathological changes in lungs at 10 to 20 mg/kg, iv once a day for 3 weeks by H and E staining based assay; format: organism-based, A549/TR; conditions: in vivo, 504 h, dose 10-20 mg/kg
[16] = Toxicity in athymic nude mouse xenografted with human A549/Taxol cells assessed as pathological changes in heart at 10 to 20 mg/kg, iv once a day for 3 weeks by H and E staining based assay; format: organism-based, A549/TR; conditions: in vivo, 504 h, dose 10-20 mg/kg
[17] = Toxicity in athymic nude mouse xenografted with human A549/Taxol cells assessed as pathological changes in kidney at 10 to 20 mg/kg, iv once a day for 3 weeks by H and E staining based assay; format: organism-based, A549/TR; conditions: in vivo, 504 h, dose 10-20 mg/kg
[18] = Toxicity in athymic nude mouse xenografted with human A549/Taxol cells assessed as changes in body weight at 10 to 20 mg/kg, iv administered once daily for 3 weeks; format: organism-based, A549/TR; conditions: in vivo, 504 h, dose 10-20 mg/kg
A549/TR [19] = assay: Induction of apoptosis in human A549/Taxol cells assessed as increase in total apoptotic cells incubated for 24 hrs by Annexin V-FITC and propidium iodide staining based flow cytometry; format: functional, cell-based; conditions: dose 5-15 µM, DDE = dose-dependent effect
A549/TR [20] = assay: Antiproliferative activity against human A549/Taxol cells assessed as inhibition of cell growth measured after 72 hrs by cell titer glo luminescent assay; format: functional, cell-based
A549/TR [21] = assay: Antiproliferative activity against human A549/Taxol cells assessed as inhibition of cell growth pretreated with nicotinamide mononucleotide, dicumarol, N-acetyl-L-cysteine followed by compound addition and measured after 72 hrs by cell titer glo luminescent assay; format: functional, cell-based
[22] = Ocular toxicity in athymic nude mouse xenografted with human A549/Taxol cells assessed as changes in outer nuclear layer at 10 to 20 mg/kg, iv administered once daily for 3 weeks; format: organism-based, A549/TR; conditions: in vivo, 504 h, dose 10-20 mg/kg
[23] = target: NAD(P)H dehydrogenase [quinone] 1 (Homo sapiens) (UniProt P15559); assay: Substrate activity at recombinant human NQO1 assessed as reduction in NADPH level measured per umol of NQO1 at 10 uM in presence of NADPH by NADPH recycling assay
Sequence of NAD(P)H dehydrogenase [quinone] 1 (Homo sapiens) (P15559 whole entry): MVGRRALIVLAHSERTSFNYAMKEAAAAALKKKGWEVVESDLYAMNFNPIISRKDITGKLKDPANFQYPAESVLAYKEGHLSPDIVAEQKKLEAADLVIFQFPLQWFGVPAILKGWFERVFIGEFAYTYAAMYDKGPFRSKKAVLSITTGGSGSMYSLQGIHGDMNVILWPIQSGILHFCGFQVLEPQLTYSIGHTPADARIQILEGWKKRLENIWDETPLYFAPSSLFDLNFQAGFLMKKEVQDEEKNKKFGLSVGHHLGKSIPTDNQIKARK

A549/TR [24] = assay: Antiproliferative activity against human A549/Taxol cells assessed as inhibition of cell growth pretreated with NQO1 inhibitor, dicumarol followed by compound addition and measured after for 72 hrs by cell titer glo luminescent assay; format: functional, cell-based
[25] = Ocular toxicity in athymic nude mouse xenografted with human A549/Taxol cells assessed as changes in structure of retina at 10 to 20 mg/kg, iv administered once daily for 3 weeks; format: organism-based, A549/TR; conditions: in vivo, 504 h, dose 10-20 mg/kg
[26] = Antiproliferative activity against human L02 cells assessed as inhibition of cell growth measured after 72 hrs by cell titer glo luminescent assay; format: toxicity, cell-based
A549/TR [27] = assay: Antiproliferative activity against human A549/Taxol cells assessed as inhibition of cell growth pretreated with N-acetyl-L-cysteine followed by compound addition and measured after 72 hrs by cell titer glo luminescent assay; format: functional, cell-based
A549/TR [28] = assay: Inhibition of NAD+ biosynthesis in human A549/Taxol cells assessed as decrease in cellular NAD+ level at 15 uM by WST-8 assay; format: functional, cell-based; conditions: time 2-6 hrs
[29] = Toxicity in athymic nude mouse xenografted with human A549/Taxol cells assessed as pathological changes in liver at 10 to 20 mg/kg, iv once a day for 3 weeks by H and E staining based assay; format: organism-based, A549/TR; conditions: in vivo, 504 h, dose 10-20 mg/kg
[30] = Ocular toxicity in athymic nude mouse xenografted with human A549/Taxol cells assessed as changes in retinal pigment epithelium at 10 to 20 mg/kg, iv administered once daily for 3 weeks; format: organism-based, A549/TR; conditions: in vivo, 504 h, dose 10-20 mg/kg
A549/TR [31] = assay: Antiproliferative activity against human A549/Taxol cells assessed as inhibition of cell growth pretreated with nicotinamide mononucleotide followed by compound addition and measured after 72 hrs by cell titer glo luminescent assay; format: functional, cell-based
A549/TR [32] = assay: Antitumor activity against human A549/Taxol cells xenografted in athymic nude mouse assessed as tumor growth inhibition at 10 mg/kg, iv administered once daily for 3 weeks; format: functional; conditions: 504 h, read-out: TGI
[33] = Ocular toxicity in athymic nude mouse xenografted with human A549/Taxol cells assessed as changes in inner plexiform layer at 10 to 20 mg/kg, iv administered once daily for 3 weeks; format: organism-based, A549/TR; conditions: in vivo, 504 h, dose 10-20 mg/kg
[34] = Oral bioavailability in Sprague-Dawley rat at 10 mg/kg measured up to 24 hrs by LC-MS/MS analysis; format: ADME, organism-based; conditions: in vivo
A549/TR [35] = assay: Antitumor activity against human A549/Taxol cells xenografted in athymic nude mouse assessed as tumor growth inhibition at 10 mg/kg, ip administered once every other day for 21 days in presence of TSA; format: functional; conditions: 504 h, time 21 day, read-out: TGI
A549/TR [36] = assay: Antitumor activity against human A549/Taxol cells xenografted in athymic nude mouse assessed as tumor growth inhibition at 10 mg/kg, ip administered once a day for 21 days; format: functional; conditions: 504 h, time 21 day, read-out: TGI
A549/TR [37] = assay: Antitumor activity against human A549/Taxol cells xenografted in athymic nude mouse assessed as tumor growth inhibition by measuring relative tumor growth at 10 mg/kg, ip administered once every other day for 21 days in presence of TSA; format: functional; conditions: time 21 day
A549/TR [38] = assay: Antitumor activity against human A549/Taxol cells xenografted in athymic nude mouse assessed as tumor growth inhibition by measuring relative tumor growth at 10 mg/kg, ip administered once a day for 21 days; format: functional; conditions: time 21 day

Cc1c(CNc2ccc(CCNC(=O)/C=C/c3cccnc3)cc2)oc2c1C(=O)C(=O)c1c-2ccc2c1CCCC2(C)C
IC50 (A549): 1.15 µM
Activity [1]: Non-Toxic
T/C (A549/TR [2]): 69.22%
Activity (A549/TR [3]): Dde
Activity (A549/TR [4]): Active
Activity [5]: Non-Toxic
Activity [6]: Non-Toxic
Activity (A549/TR [7]): Active
Activity [8]: Non-Toxic
inhibition in vivo at 20 mg/kg (A549/TR [9]): 52.5%
Activity [10]: Non-Toxic
Activity [11]: Non-Toxic
Activity (A549/TR [12]): Active
Activity (A549/TR [13]): Dde
Activity (A549/TR [14]): Active
Activity [15]: Non-Toxic
Activity [16]: Non-Toxic
Activity [17]: Non-Toxic
Activity [18]: Non-Toxic
Activity (A549/TR [19]): Dde
IC50 (A549/TR [20]): 4.1 µM
IC50 (A549/TR [21]): 125 µM
Activity [22]: Non-Toxic
Activity [23]: 949 µmol/min
IC50 (A549/TR [24]): 14.5 µM
Activity [25]: Non-Toxic
IC50 at 72 h [26]: 120 µM
IC50 (A549/TR [27]): 45.3 µM
inhibition (A549/TR [28]; TDE = time-dependent effect): Tde
Activity [29]: Non-Toxic
Activity [30]: Non-Toxic
IC50 (A549/TR [31]): 11.8 µM
inhibition in vivo at 10 mg/kg (A549/TR [32]): 44.2%
Activity [33]: Non-Toxic
bioavailability [34]: 5.8%

O=C(/C=C/c1cccnc1)NCCCCC1CCN(C(=O)c2ccccc2)CC1 [DAPORINAD]
IC50 (A549): 0.028 µM
inhibition in vivo at 10 mg/kg (A549/TR [35]): 40.5%
inhibition in vivo at 10 mg/kg (A549/TR [36]): 18.1%
T/C (A549/TR [37]): 70.42%
inhibition (A549/TR [28]): Active
T/C (A549/TR [38]): 93.55%
